Reference: PubChem BioAssay (NCI)
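Compound exposure: 48 hours, 5 concentrations, 96-well plates. GI50 marks 50% less growth. The concentration for full growth arrest is given as TGI.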

Tests used:
Experiment in all cases: growth of human tumour cells (NCI), 48 h
SNB-78 CNS = system: SNB-78 CNS
LXFL 529 NSCLC = system: LXFL 529 NSCLC
KM20L2 colon = system: KM20L2 colon
DMS 114 small cell lung = system: DMS 114 small cell lung
HOP-18 NSCLC = system: HOP-18 NSCLC
XF 498 CNS = system: XF 498 CNS
MDA-MB-435 = system: MDA-MB-435
MDA-N = system: MDA-N
RXF-631 renal = system: RXF-631 renal

SMILES | TGI (SNB-78 CNS) [µM] | TGI (LXFL 529 NSCLC) [µM] | TGI (KM20L2 colon) [µM] | TGI (DMS 114 small cell lung) [µM] | TGI (HOP-18 NSCLC) [µM] | TGI (XF 498 CNS) [µM] | TGI (MDA-MB-435) [µM] | GI50 (MDA-MB-435) | also measured
OCC(O)CNc1ccnc2cc(Cl)ccc12 (stereo unspecified) | > 100 | > 100 | > 100 | > 100 | > 100 | > 100 | – | – | –
Nc1nc(N)nc(CCCc2nc(N)nc(N)n2)n1 | – | – | – | – | – | – | > 100 | – | TGI (MDA-N): > 100 µM
Nc1ccc2[nH]cc(CCC(=O)O)c2c1 | – | – | – | – | – | – | > 100 | – | TGI (MDA-N): > 100 µM
CCOC(=O)/C(=C/c1cccc(C#N)c1)N(CC)CC | > 100 | > 100 | – | > 100 | > 100 | > 100 | – | – | TGI (RXF-631 renal): > 100 µM
COC(=O)CCC1=C(CC(=O)OC)C(C)=N/C1=C\c1[nH]c(-c2ccc[nH]2)cc1OC | – | – | – | – | – | – | 23.3 | 5.81 µM | –
CC1=C(C(=O)Nc2ccccc2)C(c2ccc(C3C(C(=O)Nc4ccccc4)=C(C)NC(C)=C3C(=O)Nc3ccccc3)cc2)C(C(=O)Nc2ccccc2)=C(C)N1 | – | 5.34 | 4.94 | 17.8 | 21.7 | 20.5 | 5.83 | – | TGI (MDA-N): 14.5 µM
COc1cc(C2C(C(=O)Nc3cc(F)c(F)cc3F)=C(C)NC(C)=C2C(=O)Nc2cc(F)c(F)cc2F)ccc1O | > 100 | > 100 | > 100 | 41.8 | – | 33.1 | – | – | TGI (RXF-631 renal): 37.9 µM
CC(=O)OCCOCNC(=S)N/N=C/c1ccc(Br)s1 | > 100 | > 100 | > 100 | > 100 | > 100 | > 100 | – | – | –
O=C1CSC(c2ccc(-c3nc4ccccc4s3)cc2)=N1 | – | – | – | – | – | – | 24.8 | 7.54 µM | –
Cc1cccc(N=C2NC(=O)C(CC(=O)Nc3cccc(C)c3C)S2)c1 (stereo unspecified) | > 100 | > 100 | > 100 | > 100 | – | > 100 | – | – | –
COC(=O)c1cccc2cccc(C(=O)Nc3ccc(Cl)cc3)c12 | > 100 | > 100 | > 100 | > 100 | > 100 | > 100 | – | – | TGI (RXF-631 renal): > 100 µM
O=C(NO)c1ccc(CN(c2cnccn2)c2cnccn2)cc1 | – | – | – | – | – | – | 27.7 | 12.2 µM | –
Nc1nc(N)c2cc(CNc3ccc(C(=O)NC(CC(=O)O)C(=O)O)c(Cl)c3)ccc2n1 (stereo unspecified) | – | – | – | 0.0214 | – | – | > 500 | 0.05 µM | GI50 (MDA-N): 0.05 µM; TGI (MDA-N): > 500 µM
C=CCN1CC2CON(C(=O)C(OC)(c3ccccc3)C(F)(F)F)C2C1C(C)C (stereo unspecified) | – | – | – | – | – | – | – | 41.8 µg/mL | GI50 (MDA-N): 31.8 µg/mL
Oc1ccc(Br)cc1C=Nc1ccc(N=Cc2cc(Br)ccc2O)cc1 | > 100 | – | > 100 | > 100 | – | – | – | – | –
S=C1SC2=Nc3ccccc3CN2C2=NCCN12 | – | – | – | – | – | – | > 100 | > 100 µM | –
COc1ccc(/C=C(/c2ccccc2)[N+](=O)[O-])cc1 | – | – | – | – | – | – | 2.69 | 1.3 µM | –

SMILES | TGI (SNB-78 CNS) [µM] | TGI (LXFL 529 NSCLC) [µM] | TGI (KM20L2 colon) [µM] | TGI (DMS 114 small cell lung) [µM] | TGI (HOP-18 NSCLC) [µM] | TGI (XF 498 CNS) [µM] | TGI (MDA-MB-435) [µM] | GI50 (MDA-MB-435) | also measured
Clc1ccc(N=CNc2ccc(-c3nc4ccccc4o3)cc2)cc1 | – | – | – | – | – | – | 49.8 | 21.1 µM | –
O=C1C(=O)N(c2cc(Cl)ccc2Cl)C(=O)C(=O)C1c1nc2ccccc2o1 | > 100 | > 100 | > 100 | > 100 | > 100 | > 100 | – | – | TGI (RXF-631 renal): > 100 µM
CCCCCCCCCCN1CCC(N2CCCCC2)CC1 | – | – | – | – | – | – | 3.55 | 1.47 µM | –
Nc1ccccc1SC1CC(=O)N(c2ccc(Cl)c(Cl)c2)C1=O (stereo unspecified) | – | – | – | – | – | – | > 100 | 26.1 µM | –
N#CC(C(=O)CCC(=O)Nc1cccc(C(F)(F)F)c1)c1ccc(Cl)cc1 (stereo unspecified) | > 100 | > 100 | > 100 | – | > 100 | > 100 | – | – | TGI (RXF-631 renal): > 100 µM
O=C(O)C12CC3(C(=O)O)CC(C(=O)O)(CC(C(=O)O)(C1)C3=O)C2=O | – | – | – | – | – | – | > 100 | – | TGI (MDA-N): > 100 µM
CCN(CC)CCNC(=O)c1ccc(C)c(OCc2ccccc2)c1[N+](=O)[O-] | > 100 | 33.9 | 64.5 | > 65.7 | > 100 | 39.7 | – | – | TGI (MDA-N): 38.3 µM
CC/C=C/C/C=C/C/C=C/C/C=C/C/C=C/C/C=C/CCC(=O)Nc1ccn([C@@H]2O[C@H](CO)[C@@H](O)C2(F)F)c(=O)n1 | – | – | – | – | – | – | 17.5 | 0.2 µM | –
COC(=O)/C(=C\c1ccc(N(CCC#N)CCC#N)cc1)NC(=O)c1cc([N+](=O)[O-])ccc1Cl | > 100 | > 100 | > 100 | > 100 | > 100 | – | – | – | –
C=C1CC[C@@H](C(C)C)C[C@@H]2[C@H]([C@H](O)C[C@]2(C)O)[C@@]2(C)CC[C@@H]1O2 | – | – | – | – | – | – | 32.1 | 16.4 µM | –
Cc1ccc(S(=O)(=O)NC(=O)NC2=NC(C)(C)N(c3ccc(Cl)c(Cl)c3)C(N)=N2)cc1 | – | – | – | – | – | – | – | – | TGI (MDA-N): > 100 µM
CC1=C(c2cc(C(=O)Nc3ccc(Cl)cc3)nc(=S)[nH]2)Sc2ccccc2N1 | > 100 | > 100 | > 100 | > 100 | > 100 | > 100 | – | – | TGI (RXF-631 renal): > 100 µM
O=C(OCC(OC(=O)c1ccccc1)C(OC(=O)c1ccccc1)C(OC(=O)c1ccccc1)c1cnn(-c2ccccc2)n1)c1ccccc1 (stereo unspecified) | – | – | – | – | – | – | > 100 | – | TGI (MDA-N): > 100 µM
NC(=S)N/N=C/c1cc(-c2cccc(N)c2)ccn1 | – | – | – | – | – | – | > 100 | 3.2 µM | –
OCCNCCOc1ccc(/C(=C(/Cl)c2ccccc2)c2ccccc2)cc1 | 23.6 | 19.7 | 8.56 | 29.6 | 33.4 | 18.2 | – | – | –
CCCCCc1ccc(S(=O)(=O)Nc2cc(-c3csc(NC(C)=O)n3)ccc2N2CCN(C)CC2)cc1 | – | – | – | – | – | – | 9.5 | 4.85 µM | –
O=C(NCc1ccc(S(=O)(=O)c2cc(F)cc(F)c2)cc1)c1ccc2nccn2c1 | – | – | – | – | – | – | > 100 | 0.0508 µM | –
